Results: publication PMC8033486 (Frontiers in Pharmacology, 2021)
Counter-ions that a name gives are not always drawn. Like-named read-outs stand apart in the source and are kept apart here. *1 amine or outer side, *2 acyl side, *3 side chain or, on linkers, in order; H or OH if unused. Where a SMILES comes first, the peptide text is derived from it. Bridges are numbered along the chain shown (N, C = ends). [ ]: non-standard residue; d: D form. The star is where a group is joined. X1 = CC[C@H](C)[C@@H](N[*:1])[C@@H](O)CC(=O)O[C@H](C(=O)[C@H](C)C(=O)[*:2])C(C)C; NMeY = CN[C@@H](Cc1ccc(O)cc1)C(=O)O; dNMeL = CN[C@H](CC(C)C)C(=O)O; Pyruvoyl = CC(=O)C(=O)*

What was measured:
in vitro = conditions: African green monkey
SARS-CoV-2 = assay: microbe, parasite or virus in culture; assay type: cell-based
[1] = Severe acute respiratory syndrome coronavirus 2, Vero C1008, Vero E6, one representative experiment with two replicates, when combined, each drug at the same concentration, read-out: IC50 value of the particular graph
[2] = CC50, Vero E6, no virus, 3 days
[3] = Severe acute respiratory syndrome coronavirus 2, Vero C1008, 72 h, Vero E6, cytopathic effect 3 days after infection, repeated experiments, read-out: IC50 (Mean +/- SD)
[4] = Vero E6, cytopathic effect 3 days after infection, repeated experiments, read-out: IC50 (Mean +/- SD)

Compound | Inhibition of SARS-CoV-2-induced cytopathic effect, result in words (SARS-CoV-2; Vero E6) | CC50 at 3 days (in vitro; [2]) [µM] | IC50 (Mean +/- SD) (SARS-CoV-2) | also measured
CC[C@H](C)[C@H]1NC(=O)[C@@H](NC(=O)[C@@H](CC(C)C)N(C)C(=O)[C@@H]2CCCN2C(=O)C(C)=O)[C@@H](C)OC(=O)[C@H](Cc2ccc(OC)cc2)N(C)C(=O)[C@@H]2CCCN2C(=O)[C@H](CC(C)C)NC(=O)[C@@H](C)C(=O)[C@H](C(C)C)OC(=O)C[C@@H]1O [Plitidepsin] (Pyruvoyl-P[dNMeL]T[X1]LP[NMeY](Me); ester 3-C) | always in nM concentrations |  |  | CC50 (in vitro): > 0.1 µM; IC50 (SARS-CoV-2; Severe acute respiratory syndrome coronavirus 2, Vero C1008, 72 h, read-out: IC50 (Mean +/- SD)): 0.06 µM; IC50 (SARS-CoV-2; [1]): 0.05 µM
Cc1c(O)cccc1C(=O)N[C@@H](CSc1ccccc1)[C@H](O)CN1C[C@H]2CCCC[C@H]2C[C@H]1C(=O)NC(C)(C)C [Nelfinavir mesylate hydrate] |  | > 25 |  | IC50 (SARS-CoV-2; [3]): < 10 µM; IC50 (SARS-CoV-2; [1]): 1.4 µM
CCC[C@@]1(CCc2ccccc2)CC(O)=C([C@H](CC)c2cccc(NS(=O)(=O)c3ccc(C(F)(F)F)cn3)c2)C(=O)O1 [Tipranavir] | inhibited SARS-CoV-2-induced cytopathic effect at the non-toxic concentration of 20 μM | > 70 |  | 
CCN(CCO)CCCC(C)Nc1ccnc2cc(Cl)ccc12 (centres unmarked) [Hydroxychloroquine] | able to inhibit viral-induced cytopathic effects at concentrations where no cytotoxic effects of the drug were observed | > 80 |  | IC50 (SARS-CoV-2; [3]): 9.3 ± 11.1 µM; IC50 (SARS-CoV-2; [1]): 2.1 µM
OC(Cn1cncn1)(Cn1cncn1)c1ccc(F)cc1F [Fluconazol] |  | > 100 |  | 
CC(C)(C)NC(=O)N[C@H](C(=O)N1C[C@H]2[C@@H]([C@H]1C(=O)NC(CC1CCC1)C(=O)C(N)=O)C2(C)C)C(C)(C)C (some centres unmarked) [Boceprevir] |  |  |  | CC50 at 3 days (in vitro; CC50): > 100 µM
CN(C)CCCN1c2ccccc2Sc2ccc(Cl)cc21 [Chlorpromazine] | we did not find any prominent effect | > 18 |  | 
CCC(CC)COC(=O)[C@H](C)N[P@](=O)(OC[C@H]1O[C@@](C#N)(c2ccc3c(N)ncnn23)[C@H](O)[C@@H]1O)Oc1ccccc1 [Remdesivir] |  |  |  | CC50 (in vitro): > 85 µM; IC50 (SARS-CoV-2; [1]): 1.2 µM; IC50 (SARS-CoV-2; [4]): < 10 µM
Cc1cccc(C)c1OCC(=O)N[C@@H](Cc1ccccc1)[C@@H](O)C[C@H](Cc1ccccc1)NC(=O)[C@H](C(C)C)N1CCCNC1=O [Lopinavir] | inhibited SARS-CoV-2-induced cytopathic effect at the non-toxic concentration of 20 μM | > 87 |  | 
CC(=O)N[C@@H](CS)C(=O)O [N-Acetil cystein] |  |  | Not Active | 
CCC(C)n1ncn(-c2ccc(N3CCN(c4ccc(OCC5COC(Cn6cncn6)(c6ccc(Cl)cc6Cl)O5)cc4)CC3)cc2)c1=O (centres unmarked) [Itraconazole] |  | > 100 |  | IC50 (SARS-CoV-2; [3]): 79.4 µM; IC50 (SARS-CoV-2; [1]): 79.4 µM; IC50 (SARS-CoV-2; [4]): 80 µM
O=C(O)c1nn(Cc2ccc(Cl)cc2Cl)c2ccccc12 [Diclondazolic acid (Lonidamine), Diclondazolic acid] |  |  | Not Active | 
CC(C)OC(=O)OCOP(=O)(CO[C@H](C)Cn1cnc2c(N)ncnc21)OCOC(=O)OC(C)C [Tenofovir disoproxil fumarate] | failed to show any antiviral effect |  |  | CC50 (in vitro): > 100 µM
CC(C)(C)NC(=O)[C@@H]1C[C@@H]2CCCC[C@@H]2CN1C[C@@H](O)[C@H](Cc1ccccc1)NC(=O)[C@H](CC(N)=O)NC(=O)c1ccc2ccccc2n1 [Saquinavir] |  | > 28 |  | 
CCOC(=O)Cn1cccc1-c1nc(-c2ccc(OC)cc2)c(-c2ccc(OC)cc2)s1 [Pamicogrel] |  |  |  | CC50 at 3 days (in vitro; CC50): 6.4 µM
CC(=O)c1c(C)c2cnc(Nc3ccc(N4CCNCC4)cn3)nc2n(C2CCCC2)c1=O [Palbociclib] |  | 2.7 |  | 
COc1c(O[C@@H]2O[C@H](CO)[C@@H](O)[C@H](O)[C@H]2O)cc2c(c1OC)-c1ccc(SC)c(=O)cc1[C@@H](NC(C)=O)CC2 [Thiocolchicoside] |  |  | Not Active | 
CC(=O)N[C@H]1C([C@H](O)[C@H](O)CO)O[C@@](O[C@@H]2C(O)[C@H](O[C@@H]3C(CO)OC(O)C(O)[C@H]3O)OC(CO)[C@@H]2O)(C(=O)[O-])C[C@H]1O.[Na+] (some centres unmarked) [3’ Sialyllactose Na Salt] | not able to reduce viral-induced cytopathic effect |  |  | 
N#Cc1ccccc1-c1cc(-c2ccccn2)cn(-c2ccccc2)c1=O [Perampanel] |  |  | Not Active | 
CC(C)CN(C[C@@H](O)[C@H](Cc1ccccc1)NC(=O)O[C@H]1CO[C@H]2OCC[C@H]21)S(=O)(=O)c1ccc(N)cc1 [Darunavir] |  |  | partially active at 100 | 
NC12CC3CC(CC(C3)C1)C2 [Amantadine] | only a partial inhibition at 100 μM | > 100 |  | 
O=C(Nc1ccc([N+](=O)[O-])cc1Cl)c1cc(Cl)ccc1O [Niclosamide] | failed to protected Vero E6 cells from SARS-CoV-2 induced cytopathic effect | > 9 |  | 

Compound | Inhibition of SARS-CoV-2-induced cytopathic effect, result in words (SARS-CoV-2; Vero E6) | CC50 at 3 days (in vitro; [2]) [µM] | IC50 (Mean +/- SD) (SARS-CoV-2) | also measured
OC(c1cc(C(F)(F)F)nc2c(C(F)(F)F)cccc12)C1CCCCN1 (centres unmarked) [Mefloquine hydrochloride] |  | > 100 |  | 
CC[C@H]1OC(=O)[C@H](C)[C@@H](O[C@H]2C[C@@](C)(OC)[C@@H](O)[C@H](C)O2)[C@H](C)[C@@H](O[C@@H]2O[C@H](C)C[C@H](N(C)C)[C@H]2O)[C@](C)(O)C[C@@H](C)CN(C)[C@H](C)[C@@H](O)[C@]1(C)O [Azithromycin] |  | > 100 |  | 
CCCCOc1nc(N)c2c(n1)N(Cc1cccc(CN3CCCC3)c1)CC(=O)N2 [Vesatolimod] | not able to protect from the viral-induced cytopathic effect | > 20 |  | 
CC(C)OC(=O)[C@H](C)N[P@](=O)(CO[C@H](C)Cn1cnc2c(N)ncnc21)Oc1ccccc1 [Tenofovir Alafenamide] |  |  | Not Active | CC50 (in vitro): > 100 µM; Inhibition of SARS-CoV-2-induced cytopathic effect, result in words (SARS-CoV-2): failed to show any antiviral effect
CN(C)[C@@H]1C(O)=C(C(N)=O)C(=O)[C@@]2(O)C(O)=C3C(=O)c4c(O)c(NC(=O)CN5CCCC5)cc(F)c4C[C@H]3C[C@@H]12 [Eravacycline] |  | > 4 |  | 
CC(C)OC(=O)[C@H](C)N[P@](=O)(OC[C@H]1O[C@@H](n2ccc(=O)[nH]c2=O)[C@](C)(F)[C@@H]1O)Oc1ccccc1 [Sofosbuvir] |  |  | Not Active | CC50 (in vitro): > 100 µM
CN(C)C(=O)c1cc2cnc(Nc3ccc(N4CCNCC4)cn3)nc2n1C1CCCC1 [Ribociclib] |  | > 20 | Not Active | 
CC(C)CN(C[C@@H](OP(=O)(O)O)[C@H](Cc1ccccc1)NC(=O)O[C@H]1CCOC1)S(=O)(=O)c1ccc(N)cc1 [Fosamprenavir Calcium] |  | > 25 |  | 
NC(=O)c1nc(F)c[nH]c1=O [Favipiravir] | only partial inhibitory activity at the non-toxic concentration of 100 µM |  |  | CC50 at 3 days (in vitro; CC50): > 100 µM
COc1cc(C2Oc3cc([C@H]4Oc5cc(O)cc(O)c5C(=O)[C@@H]4O)ccc3OC2CO)ccc1O (some centres unmarked) [Silibinin] |  | > 20 |  | 
CC1SCC(C(=O)NC(Cc2cnc[nH]2)C(=O)N2CCCC2C(N)=O)NC1=O.O=C(O)C(F)(F)F (centres unmarked) [Montirelin trifluoroacetate salt] |  |  | Not Active | 
Methyl-ß-cyclodextrin | abrogate SARS-CoV-2 induced cytopathic effect |  | active at 1000 | 
CCN(CC)CCCC(C)Nc1c2ccc(Cl)cc2nc2ccc(OC)cc12 (centres unmarked) [Quinacrine dihydrochloride] |  | > 6 |  | 
interferon-γ [IFN stimulated antivirus proteins; granulomatous disease] | displayed antiviral activity |  |  | 
CCS(=O)(=O)N1CC(CC#N)(n2cc(-c3ncnc4[nH]ccc34)cn2)C1 [Baricitinib] |  |  |  | CC50 (in vitro): > 85 µM
COC[C@H]1C[C@@H](c2ncc(-c3ccc4c(c3)COc3cc5c(ccc6nc([C@@H]7CC[C@H](C)N7C(=O)[C@@H](NC(=O)OC)C(C)C)[nH]c65)cc3-4)[nH]2)N(C(=O)[C@H](NC(=O)OC)c2ccccc2)C1 [Velpatasvir] |  |  |  | CC50 at 3 days (in vitro; CC50): > 10 µM
Ivermectin |  |  | Not Active | 
CCOC(=O)C1=C(CN2CCOCC2)NC(c2nccs2)=NC1c1ccc(F)cc1Br (centres unmarked) [Morphothiadine] |  |  | Not Active | 
Nc1ncnc2c([C@@H]3N[C@H](CO)[C@@H](O)[C@H]3O)c[nH]c12 [Galdesivir] | no antiviral effect |  | Not Active | 
C[C@H]1c2cccc(O)c2C(=O)C2=C(O)[C@]3(O)C(=O)C(C(N)=O)=C(O)[C@@H](N(C)C)[C@@H]3[C@@H](O)[C@@H]21 [Doxycycline] |  | > 100 |  | 
COc1cc2c(c(OC)c1OC)-c1ccc(OC)c(=O)cc1[C@@H](NC(C)=O)CC2 [Colchicine] |  |  |  | CC50 (in vitro): 0.63 µM
Laflunimus Sodium Salt |  |  | Not Active | 
